Entries after “also recorded” stand apart in the source; their conditions may differ.
Tests used:
[1] = test system: ACM mice; assay: Arrhythmias in ACM mice treated with SB216763 (previous unpublished observations); assay type: in vivo
[2] = test system: neonatal rat ventricular myocytes (NRVMs) expressing JUP^2157del2; conditions: NRVMs expressing mutant plakoglobin, previous reports; cited from earlier work
[3] = test system: models of ACM; conditions: multiple in vitro and in vivo models, human iPSC-cardiac myocytes; cited from earlier work

In the case of `Cn1cc(C2=C(c3ccc(Cl)cc3Cl)C(=O)NC2=O)c2ccccc21` [SB216763], the “time to return of arrhythmias after cessation of treatment” value ([1]; ACM mice) is listed as ≤ 48 h, the “time to cessation of arrhythmias” value ([1]; ACM mice under treatment) is listed as ≤ 24 h and the “in vitro ACM features (protein redistribution, apoptosis, cytokines)” value [2] is listed as “blocked; also recorded: normalized”. The “full ACM disease phenotype” value [3] was “prevent and/or reverse”.

Reference: patent US20210161868A1, “ANTI-INFLAMMATORY THERAPY IN ARRHYTHMOGENIC CARDIOMYOPATHY (ACM)” (Beth Israel Deaconess Medical Center, Inc., priority 2018, published 2021)
